From publication PMC11127902, “Rescuing tri-heteromeric NMDA receptor function: the potential of pregnenolone-sulfate in loss-of-function GRIN2B variants” (Cellular and Molecular Life Sciences: CMLS, 2024)
Where two headings read alike, the source gives them in different places.

Legend:
[1] = target: T1, Mixed di-heteromeric GluN2B-wt/GluN2B-G689S (Rattus norvegicus, UniProt P35439+Q00960, G689S); experiment: TEVC in Xenopus oocytes; assay type: cell-based
T1 construct: expressed in transfected cells; host or cells: Xenopus laevis oocytes, mRNA injection
Text: (§1) Aliquots were thawed before each experiment.

[2] = target: T2, Purely di-heteromeric GluN2B-G689C (C1/C2) (Rattus norvegicus, UniProt P35439+Q00959+Q00960, A876H/F846L/G689C/G856D/H848F/K857R/M851T/M860L/Q845K/V861L); experiment: TEVC in Xenopus oocytes; assay type: cell-based
T2 construct: expressed in transfected cells; host or cells: Xenopus laevis oocytes, mRNA injection
T2 sequence (Q00960+Q00959 fused with the stated changes, other chains not shown): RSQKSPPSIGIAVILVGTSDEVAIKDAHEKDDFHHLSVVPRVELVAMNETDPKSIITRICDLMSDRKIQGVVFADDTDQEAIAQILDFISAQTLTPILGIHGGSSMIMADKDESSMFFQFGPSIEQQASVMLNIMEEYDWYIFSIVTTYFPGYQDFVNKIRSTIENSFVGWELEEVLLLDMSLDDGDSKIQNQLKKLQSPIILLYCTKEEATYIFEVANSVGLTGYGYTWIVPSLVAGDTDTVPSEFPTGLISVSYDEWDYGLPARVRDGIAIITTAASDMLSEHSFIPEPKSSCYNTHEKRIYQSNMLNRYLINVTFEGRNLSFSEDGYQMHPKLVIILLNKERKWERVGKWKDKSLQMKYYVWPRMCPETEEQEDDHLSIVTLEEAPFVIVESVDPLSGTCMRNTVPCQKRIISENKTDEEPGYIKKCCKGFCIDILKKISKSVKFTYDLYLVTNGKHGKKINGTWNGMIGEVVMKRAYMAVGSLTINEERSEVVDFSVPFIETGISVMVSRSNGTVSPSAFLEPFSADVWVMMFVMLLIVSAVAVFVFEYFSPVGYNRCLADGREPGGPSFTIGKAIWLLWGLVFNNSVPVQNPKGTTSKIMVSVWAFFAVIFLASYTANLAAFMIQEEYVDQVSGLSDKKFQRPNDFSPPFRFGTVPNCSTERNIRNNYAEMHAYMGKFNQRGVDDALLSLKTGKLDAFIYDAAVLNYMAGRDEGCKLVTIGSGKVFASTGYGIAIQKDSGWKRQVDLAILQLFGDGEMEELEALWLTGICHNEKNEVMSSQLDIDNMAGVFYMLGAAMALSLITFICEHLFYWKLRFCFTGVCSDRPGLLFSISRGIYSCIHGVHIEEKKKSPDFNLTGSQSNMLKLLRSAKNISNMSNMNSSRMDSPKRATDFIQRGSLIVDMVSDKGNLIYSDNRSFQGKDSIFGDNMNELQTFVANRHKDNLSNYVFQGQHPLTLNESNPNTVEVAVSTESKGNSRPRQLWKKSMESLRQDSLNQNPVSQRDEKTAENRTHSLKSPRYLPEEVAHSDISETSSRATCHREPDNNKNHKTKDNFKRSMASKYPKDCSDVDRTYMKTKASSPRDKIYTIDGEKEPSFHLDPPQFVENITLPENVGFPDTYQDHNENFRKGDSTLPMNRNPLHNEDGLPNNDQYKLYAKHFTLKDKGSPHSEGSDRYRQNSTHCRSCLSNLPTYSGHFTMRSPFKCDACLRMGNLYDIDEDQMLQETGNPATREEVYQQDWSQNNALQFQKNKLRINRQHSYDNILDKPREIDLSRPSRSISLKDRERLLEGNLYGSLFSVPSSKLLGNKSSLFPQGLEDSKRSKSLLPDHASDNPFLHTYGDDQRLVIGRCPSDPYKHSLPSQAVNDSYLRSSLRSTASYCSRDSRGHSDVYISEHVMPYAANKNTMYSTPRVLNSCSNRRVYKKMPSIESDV
Text: as §1

[3] = target: T3, Purely di-heteromeric GluN2B-G689S (C1/C2) (Rattus norvegicus, UniProt P35439+Q00959+Q00960, A876H/F846L/G689S/G856D/H848F/K857R/M851T/M860L/Q845K/V861L); experiment: TEVC in Xenopus oocytes; assay type: cell-based
T3 construct: expressed in transfected cells; host or cells: Xenopus laevis oocytes, mRNA injection
T3 sequence (Q00960+Q00959 fused with the stated changes, other chains not shown): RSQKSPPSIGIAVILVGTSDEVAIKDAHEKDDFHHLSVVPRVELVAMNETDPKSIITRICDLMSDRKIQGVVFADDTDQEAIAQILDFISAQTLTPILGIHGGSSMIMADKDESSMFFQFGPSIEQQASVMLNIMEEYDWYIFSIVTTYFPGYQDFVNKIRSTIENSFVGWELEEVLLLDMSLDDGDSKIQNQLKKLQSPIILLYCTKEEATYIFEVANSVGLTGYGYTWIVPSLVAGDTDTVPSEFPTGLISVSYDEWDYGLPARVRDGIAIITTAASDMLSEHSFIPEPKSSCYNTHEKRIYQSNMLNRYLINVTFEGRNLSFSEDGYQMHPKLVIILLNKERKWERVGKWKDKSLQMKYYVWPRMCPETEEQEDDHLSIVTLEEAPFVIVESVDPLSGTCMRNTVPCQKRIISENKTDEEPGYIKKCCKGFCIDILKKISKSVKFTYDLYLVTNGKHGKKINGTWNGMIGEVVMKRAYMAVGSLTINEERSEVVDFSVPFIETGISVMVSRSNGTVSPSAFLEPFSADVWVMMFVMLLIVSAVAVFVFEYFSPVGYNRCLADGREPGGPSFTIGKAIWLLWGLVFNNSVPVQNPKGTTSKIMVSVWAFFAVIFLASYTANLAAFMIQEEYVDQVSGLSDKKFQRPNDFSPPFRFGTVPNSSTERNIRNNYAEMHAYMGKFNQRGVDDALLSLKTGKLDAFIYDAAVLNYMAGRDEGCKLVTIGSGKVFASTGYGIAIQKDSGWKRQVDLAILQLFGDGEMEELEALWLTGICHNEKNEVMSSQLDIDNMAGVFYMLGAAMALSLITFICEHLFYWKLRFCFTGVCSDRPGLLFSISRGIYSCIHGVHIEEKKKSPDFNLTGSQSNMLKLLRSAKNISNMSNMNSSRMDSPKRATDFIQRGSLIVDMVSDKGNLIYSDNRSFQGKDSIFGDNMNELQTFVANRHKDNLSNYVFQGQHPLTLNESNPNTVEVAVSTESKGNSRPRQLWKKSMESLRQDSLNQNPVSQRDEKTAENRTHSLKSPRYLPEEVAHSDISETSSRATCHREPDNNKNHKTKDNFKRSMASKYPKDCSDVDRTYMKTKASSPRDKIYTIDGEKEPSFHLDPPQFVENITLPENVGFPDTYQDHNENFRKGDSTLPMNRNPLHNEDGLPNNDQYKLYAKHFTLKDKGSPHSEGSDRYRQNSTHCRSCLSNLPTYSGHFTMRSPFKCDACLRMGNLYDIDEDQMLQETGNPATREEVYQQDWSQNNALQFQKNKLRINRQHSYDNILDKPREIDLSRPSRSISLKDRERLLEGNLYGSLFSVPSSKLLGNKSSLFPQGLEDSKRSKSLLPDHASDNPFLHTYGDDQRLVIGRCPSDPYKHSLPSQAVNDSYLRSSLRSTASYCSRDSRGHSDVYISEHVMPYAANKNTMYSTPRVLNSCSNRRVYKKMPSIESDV
Text: as §1

[4] = target: T4, Purely di-heteromeric GluN2B-wt (GluN1-1a-wt + GluN2B-wt-C1/C2) (Rattus norvegicus, UniProt P35439+Q00959+Q00960, A876H/F846L/G856D/H848F/K857R/M851T/M860L/Q845K/V861L); experiment: TEVC in Xenopus oocytes; assay type: cell-based; conditions: glutamate dose-response
T4 construct: expressed in transfected cells; host or cells: Xenopus laevis oocytes, mRNA injection
T4 sequence (Q00960+Q00959 fused with the stated changes, other chains not shown): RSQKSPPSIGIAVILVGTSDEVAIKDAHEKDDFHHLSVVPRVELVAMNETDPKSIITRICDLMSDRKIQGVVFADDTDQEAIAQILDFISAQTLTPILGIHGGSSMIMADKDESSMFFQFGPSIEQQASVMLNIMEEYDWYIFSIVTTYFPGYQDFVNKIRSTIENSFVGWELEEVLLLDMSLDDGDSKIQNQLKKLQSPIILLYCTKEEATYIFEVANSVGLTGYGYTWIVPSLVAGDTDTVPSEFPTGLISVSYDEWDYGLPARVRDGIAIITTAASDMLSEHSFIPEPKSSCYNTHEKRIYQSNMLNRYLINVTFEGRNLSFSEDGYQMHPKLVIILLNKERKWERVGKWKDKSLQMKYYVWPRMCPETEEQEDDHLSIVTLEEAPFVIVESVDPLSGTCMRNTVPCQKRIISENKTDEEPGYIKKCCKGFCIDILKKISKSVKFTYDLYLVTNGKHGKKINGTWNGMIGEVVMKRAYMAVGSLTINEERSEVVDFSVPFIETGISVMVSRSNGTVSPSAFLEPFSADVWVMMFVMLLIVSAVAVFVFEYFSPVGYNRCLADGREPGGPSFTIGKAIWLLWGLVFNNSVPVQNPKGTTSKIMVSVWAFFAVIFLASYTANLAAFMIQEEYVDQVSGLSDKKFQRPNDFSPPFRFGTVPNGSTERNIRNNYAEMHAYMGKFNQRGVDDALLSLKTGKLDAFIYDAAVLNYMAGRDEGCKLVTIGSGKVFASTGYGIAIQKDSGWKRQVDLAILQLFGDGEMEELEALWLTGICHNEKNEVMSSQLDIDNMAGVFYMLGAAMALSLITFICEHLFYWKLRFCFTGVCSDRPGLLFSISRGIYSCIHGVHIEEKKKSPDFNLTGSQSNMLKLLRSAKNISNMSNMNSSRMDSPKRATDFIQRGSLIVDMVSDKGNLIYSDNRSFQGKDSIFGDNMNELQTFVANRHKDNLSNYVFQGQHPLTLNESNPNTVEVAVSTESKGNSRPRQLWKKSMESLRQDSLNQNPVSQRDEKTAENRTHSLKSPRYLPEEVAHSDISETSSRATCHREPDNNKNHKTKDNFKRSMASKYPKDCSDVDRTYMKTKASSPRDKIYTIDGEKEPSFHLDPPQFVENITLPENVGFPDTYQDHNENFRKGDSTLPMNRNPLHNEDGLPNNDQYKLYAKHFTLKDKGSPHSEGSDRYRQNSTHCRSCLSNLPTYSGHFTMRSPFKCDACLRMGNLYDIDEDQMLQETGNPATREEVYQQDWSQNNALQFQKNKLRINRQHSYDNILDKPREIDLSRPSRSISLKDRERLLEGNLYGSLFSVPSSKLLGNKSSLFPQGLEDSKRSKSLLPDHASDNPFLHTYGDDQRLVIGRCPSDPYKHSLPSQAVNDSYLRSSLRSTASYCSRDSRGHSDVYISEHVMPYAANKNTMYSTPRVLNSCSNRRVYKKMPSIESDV
Text: as §1

[5] = test system: wt di-heteromeric GluN2B NMDAR; conditions: glutamate, cited from earlier work
[6] = test system: Mixed di-heteromeric GluN2A-wt/GluN2A-H485A; set-up: method as in PMID 24607230; conditions: glutamate; ref 8; cited from earlier work
[7] = test system: Mixed di-heteromeric GluN2A-wt/GluN2A-P552R; set-up: method as in PMID 28095420; conditions: glutamate; ref 32; cited from earlier work
[8] = test system: Mixed di-heteromeric GluN2A-wt/GluN2A-M817V; set-up: method as in PMID 28126851; conditions: glutamate; ref 91; cited from earlier work
[9] = test system: Mixed di-heteromeric GluN2B-wt/GluN2B-E413G; set-up: method as in PMID 27839871; conditions: glutamate; ref 21; cited from earlier work
[10] = test system: Mixed di-heteromeric GluN2B-wt/GluN2B-H486A; set-up: method as in PMID 24607230; conditions: glutamate; ref 8; cited from earlier work
[11] = test system: Pure variant di-heteromeric GluN2A-H485A; set-up: method as in PMID 24607230; conditions: glutamate; ref 8; cited from earlier work
[12] = test system: Pure variant di-heteromeric GluN2A-P552R; set-up: method as in PMID 28095420; conditions: glutamate; di-heteromer section; cited from earlier work
[13] = test system: Pure variant di-heteromeric GluN2A-T690A; set-up: method as in PMID 24607230; conditions: glutamate; ref 8; cited from earlier work
[14] = test system: Pure variant di-heteromeric GluN2A-M817V; set-up: method as in PMID 28126851; conditions: glutamate; ref 91; cited from earlier work
[15] = test system: Pure variant di-heteromeric GluN2B-E413G; set-up: method as in PMID 27839871; conditions: glutamate; ref 21; cited from earlier work
[16] = test system: Pure variant di-heteromeric GluN2B-H486A; set-up: method as in PMID 24607230; conditions: glutamate; ref 8; cited from earlier work
[17] = test system: Pure variant di-heteromeric GluN2B-G543R; set-up: method as in PMID 35110392; conditions: glutamate; ref 10; cited from earlier work
[18] = test system: Pure variant di-heteromeric GluN2B-M818T; set-up: method as in PMID 28377535; conditions: glutamate; ref 25; cited from earlier work
[19] = test system: Pure variant di-heteromeric GluN2A-E551K; set-up: method as in PMID 35110392; conditions: glutamate; ref 10; cited from earlier work
[20] = test system: Mixed tri-heteromeric GluN2A-wt/ GluN2B-M818T; set-up: method as in PMID 35110392; conditions: glutamate; ref 10; cited from earlier work
[21] = test system: Mixed tri-heteromeric GluN2A-E551K/ GluN2B-wt; set-up: method as in PMID 35110392; conditions: glutamate; ref 10; cited from earlier work
[22] = test system: Mixed tri-heteromeric GluN2A-P552R/ GluN2B-wt; set-up: method as in PMID 35110392; conditions: glutamate; ref 10; cited from earlier work
[23] = test system: Mixed tri-heteromeric GluN2A-L649V/ GluN2B-wt; set-up: method as in PMID 35110392; conditions: glutamate; ref 10; cited from earlier work
[24] = test system: Mixed tri-heteromeric GluN2A-M817V/ GluN2B-wt; set-up: method as in PMID 35110392; conditions: glutamate; ref 10; cited from earlier work
[25] = test system: Mixed tri-heteromeric GluN2A-wt/ GluN2B-H486A; set-up: method as in PMID 24607230; conditions: glutamate; ref 8; cited from earlier work
[26] = test system: Double Variant Tri-Heteromeric NMDAR (GluN2A-H485A, GluN2B-H486A); set-up: method as in PMID 24607230; conditions: glutamate; ref 8; cited from earlier work
[27] = test system: non-tagged purely di-heteromeric GluN2B-G689C; conditions: read-out: Glutamate EC50 (adapted from[16]); non-tagged human receptors; cited from earlier work
[28] = compared to GluN2B-wt-C1/C2 receptors

With `N[C@@H](CCC(=O)O)C(=O)O` [Glutamate, glutamate] the “higher (improved) glutamate potency” value ([1]; compared to purely di-heteromeric variant channels) was “~ four-fold”, the “Hill coefficient (nH)” value ([1]; glutamate dose-response) was 1.02 ± 0.10 n.s (N = 1, n = 13) and the “increase in the EC50 value” [2, 28] was ~ 2000 fold. The “Hill coefficient (nH)” value ([2]; glutamate dose-response) was 2.04 ± 0.28 (N = 2, n = 13), the “increase in the EC50 value” [3, 28] was greater than 3000 fold and the “Hill coefficient (nH)” value ([3]; glutamate dose-response) was 2.45 ± 0.41 (N = 2, n = 9). For the same compound, the “Hill coefficient (nH)” value [4] was 0.86 ± 0.29 (N = 6, n = 38), the EC50 ([5]; control of GluN2B-E413G) was 0.9 µM and the EC50 ([5]; ref 8) was 1.6 µM. The EC50 [6] was 220 µM, the EC50 [7] was 1.2 µM and the EC50 [8] was 1.1 µM. For the same compound, the EC50 [9] was 21 µM, the EC50 [10] was 75 µM and the EC50 [11] was 1060 µM. The EC50 [12] was 0.64 µM, the EC50 [13] was 2700 µM and the EC50 [14] was 0.47 µM. For the same compound, the EC50 [15] was 82 µM, the EC50 [16] was 460 µM and the EC50 [17] was 0.22 µM. For the same compound, the EC50 [18] was 0.37 µM, the EC50 [19] was 0.47 µM and the EC50 [20] was 0.96 µM. The EC50 [21] was 0.7 µM, the EC50 [22] was 0.56 µM and the EC50 [23] was 0.36 µM. For the same compound, the EC50 [24] was 0.75 µM, the EC50 [25] was 140 µM and the EC50 [26] was 730 µM. For the same compound, the EC50 [27] was 1500 ± 200 µM.
